Source: PubChem BioAssay AID330 (DTP/NCI, 2004)
“And” between values parts separate entries of the source, which are not always exact repeats. Equal entries are not always repeated. Toxic doses and inconclusive results are not listed. Rule for the calls: active = survival T/C of 150% or more; inactive = T/C below 125% in these data.

System: P388 leukemia ip, CD2F1 mice, survival T/C
Assay: NCI In Vivo Anticancer Drug Screen. Data for tumor model P388 Leukemia (intraperitoneal) in CD2F1 (CDF1) mice
Settings: endpoint: median survival time, higher = longer survival
Outline: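 Mice carrying the transplanted tumor received test compound or vehicle. Survival was recorded in each group, and the value is the treated-group measurement divided by that of the vehicle-treated control group.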

[1] = dose: 50.0 mg/kg/injection, schedule: Q01DX009 (ip), vehicle: saline with Tween-80
[2] = dose: 100.0 mg/kg/injection, schedule: Q01DX009 (ip), vehicle: saline with Tween-80
[3] = dose: 200.0 mg/kg/injection, schedule: Q01DX009 (ip), vehicle: saline with Tween-80
[4] = dose: 50.0 mg/kg/injection, schedule: Q01DX009 (ip), vehicle: saline
[5] = dose: 100.0 mg/kg/injection, schedule: Q01DX009 (ip), vehicle: saline
[6] = dose: 200.0 mg/kg/injection, schedule: Q01DX009 (ip), vehicle: saline
[7] = dose: 100.0 mg/kg/injection, schedule: Q04DX003 (ip), vehicle: saline with Tween-80
[8] = dose: 200.0 mg/kg/injection, schedule: Q04DX003 (ip), vehicle: saline with Tween-80
[9] = dose: 400.0 mg/kg/injection, schedule: Q04DX003 (ip), vehicle: saline with Tween-80
[10] = dose: 50.0 mg/kg/injection, schedule: Q01DX005 (ip), vehicle: saline with Tween-80
[11] = dose: 100.0 mg/kg/injection, schedule: Q01DX005 (ip), vehicle: saline with Tween-80
[12] = dose: 25.0 mg/kg/injection, schedule: Q01DX009 (ip), vehicle: saline with Tween-80
[13] = dose: 50.0 mg/kg/injection, schedule: Q01DX009 (ip), vehicle: Klucel (hydroxypropylcellulose) (HPC)
[14] = dose: 100.0 mg/kg/injection, schedule: Q01DX009 (ip), vehicle: Klucel (hydroxypropylcellulose) (HPC)
[15] = dose: 200.0 mg/kg/injection, schedule: Q01DX009 (ip), vehicle: Klucel (hydroxypropylcellulose) (HPC)
[16] = dose: 60.0 mg/kg/injection, schedule: Q01DX005 (ip), vehicle: saline with Tween-80
[17] = dose: 120.0 mg/kg/injection, schedule: Q01DX005 (ip), vehicle: saline with Tween-80
[18] = dose: 240.0 mg/kg/injection, schedule: Q01DX005 (ip), vehicle: saline with Tween-80

Measured: T/C

CCCCCCC(=O)/C=C/c1ccc(OC)c(OC)c1OC
inactive: [1] 96 % of control | [2] 96 % of control | [3] 102 % of control

CC12CCC(Cl)CC1=CCC1C2CCC2(C)C1CCCN2CCCl (centres undefined)
inactive: dose: 6.25 mg/kg/injection, schedule: Q01DX001 (ip), vehicle: saline 99 % of control | dose: 12.5 mg/kg/injection, schedule: Q01DX001 (ip), vehicle: saline 98 % of control | dose: 25.0 mg/kg/injection, schedule: Q01DX001 (ip), vehicle: saline with Tween-80 109 % of control | dose: 25.0 mg/kg/injection, schedule: Q01DX001 (ip), vehicle: saline 98 % of control and 104 % of control

Fc1ccc(N=Cc2ccc(C=Nc3ccc(F)cc3)cc2)cc1
inactive: [4] 100 % of control | [5] 100 % of control | [6] 97 % of control

CCN(CCN(C)c1ccccc1)Cc1ccccc1
inactive: [1] 105 % of control | [2] 103 % of control | [3] 105 % of control

CCOC(=O)Cc1cn2cc(Cl)cc(Cl)c2n1
inactive: [7] 111 % of control | [8] 100 % of control | [9] 100 % of control

NC(=O)C(=Nc1ccccc1)Nc1ccccc1
inactive: dose: 100.0 mg/kg/injection, schedule: Q01DX001 (ip), vehicle: saline 115 % of control | dose: 200.0 mg/kg/injection, schedule: Q01DX001 (ip), vehicle: saline 107 % of control | dose: 400.0 mg/kg/injection, schedule: Q01DX001 (ip), vehicle: saline 104 % of control

O=S1(=O)C(CCCCC2=Cc3ccccc3S2(=O)=O)=Cc2ccccc21
inactive: [10] 94 % of control | [11] 100 % of control

CC(C)SSC(=O)N1CCCC1C(=O)O (centres undefined)
inactive: dose: 15.0 mg/kg/injection, schedule: Q01DX005 (ip), vehicle: saline 106 % of control | dose: 30.0 mg/kg/injection, schedule: Q01DX005 (ip), vehicle: saline 98 % of control | dose: 60.0 mg/kg/injection, schedule: Q01DX005 (ip), vehicle: saline 98 % of control

CCOC(=O)/C(C#N)=C/Nc1ccncc1
inactive: [1] 95 % of control | [2] 87 % of control

CC(C)CC(NC(=O)CF)C(=O)O (centres undefined)
inactive: dose: 1.25 mg/kg/injection, schedule: Q01DX009 (ip), vehicle: saline with Tween-80 96 % of control | dose: 2.5 mg/kg/injection, schedule: Q01DX009 (ip), vehicle: saline with Tween-80 109 % of control | dose: 5.0 mg/kg/injection, schedule: Q01DX009 (ip), vehicle: saline with Tween-80 124 % of control

CCCCCCC(=O)/C=C/c1cccc(OC)c1OC
inactive: [1] 99 % of control | [2] 107 % of control | [3] 105 % of control

COc1ccc(-c2coc3cc(O)cc(O)c3c2=O)cc1
inactive: [12] 94 % of control | [13] 110 % of control | [1] 97 % of control | [14] 107 % of control | [2] 93 % of control | [15] 104 % of control | dose: 400.0 mg/kg/injection, schedule: Q01DX009 (ip), vehicle: Klucel (hydroxypropylcellulose) (HPC) 96 % of control

O=C1c2ccccc2C(=O)c2c1cc1c(c2[N+](=O)[O-])OCO1
inactive: dose: 30.0 mg/kg/injection, schedule: Q01DX005 (ip), vehicle: saline with Tween-80 99 % of control and 107 % of control | [16] 99 % of control and 112 % of control and 113 % of control | [17] 99 % of control and 118 % of control and 120 % of control | [18] 118 % of control and 96 % of control

ICCCCCCCCCC[n+]1ccc2ccccc2c1
inactive: [10] 107 % of control

CC(=O)NC1C(Nc2ccc(S(=O)(=O)Nc3ccnn3-c3ccccc3)cc2)OC(CO)C(O)C1O (centres undefined)
inactive: dose: 50.0 mg/kg/injection, schedule: Q01DX005 (ip), vehicle: saline 108 % of control | dose: 100.0 mg/kg/injection, schedule: Q01DX005 (ip), vehicle: saline 100 % of control | dose: 200.0 mg/kg/injection, schedule: Q01DX005 (ip), vehicle: saline 106 % of control

CNC(=O)Oc1ccc(C2CCCCC2)cc1
inactive: [1] 107 % of control | [2] 107 % of control | [3] 88 % of control

CC1=CC(=O)C=CC1=Nc1ccc(N(CCCl)CCCl)cc1
inactive: dose: 50.0 mg/kg/injection, schedule: Q04DX003 (ip), vehicle: Klucel (hydroxypropylcellulose) (HPC) 103 % of control | dose: 100.0 mg/kg/injection, schedule: Q04DX003 (ip), vehicle: Klucel (hydroxypropylcellulose) (HPC) 102 % of control

Nc1nc(SCC(=O)O)[nH]c(=O)c1NS(=O)(=O)c1ccc([N+](=O)[O-])cc1
inactive: dose: 60.0 mg/kg/injection, schedule: Q01DX005 (ip), vehicle: Klucel (hydroxypropylcellulose) (HPC) 96 % of control | dose: 120.0 mg/kg/injection, schedule: Q01DX005 (ip), vehicle: Klucel (hydroxypropylcellulose) (HPC) 98 % of control | dose: 240.0 mg/kg/injection, schedule: Q01DX005 (ip), vehicle: Klucel (hydroxypropylcellulose) (HPC) 102 % of control

OC1CN(C(c2ccccc2)c2ccccc2)C1
inactive: [13] 100 % of control | [14] 108 % of control | [15] 104 % of control

O=C(O)c1c[nH]c2cc(F)ccc2c1=O
inactive: [4] 103 % of control | [5] 95 % of control | [6] 96 % of control

CCC(C)C(NC(=O)c1ccccc1)C(=O)O (centres undefined)
inactive: [10] 90 % of control | [11] 106 % of control | dose: 200.0 mg/kg/injection, schedule: Q01DX005 (ip), vehicle: saline with Tween-80 97 % of control

C/C(CC(=O)c1ccccc1)=C1\C(=O)NN(c2ccccc2)C1=O
inactive: [16] 101 % of control | [17] 101 % of control | [18] 93 % of control

COc1ccc(NCC(=O)O)c([N+](=O)[O-])c1
inactive: dose: 100.0 mg/kg/injection, schedule: Q01DX001 (ip), vehicle: saline with Tween-80 100 % of control | dose: 200.0 mg/kg/injection, schedule: Q01DX001 (ip), vehicle: saline with Tween-80 109 % of control | dose: 400.0 mg/kg/injection, schedule: Q01DX001 (ip), vehicle: saline with Tween-80 109 % of control

CC1(Cn2ccc(=O)[nH]c2=O)CC(C2(C)OCCO2)C(=O)O1 (centres undefined)
inactive: [16] 102 % of control | [17] 102 % of control | [18] 101 % of control

c1ccc(-c2cc3cc4c(cc3[nH]2)Sc2ccccc2O4)cc1
inactive: dose: 110.0 mg/kg/injection, schedule: Q01DX001 (ip), vehicle: Klucel (hydroxypropylcellulose) (HPC) 97 % of control | dose: 220.0 mg/kg/injection, schedule: Q01DX001 (ip), vehicle: Klucel (hydroxypropylcellulose) (HPC) 101 % of control | dose: 440.0 mg/kg/injection, schedule: Q01DX001 (ip), vehicle: Klucel (hydroxypropylcellulose) (HPC) 99 % of control

COc1ccccc1N=C(C1=C(O)c2ccccc2C1=O)c1ccccc1
inactive: dose: 100.0 mg/kg/injection, schedule: Q04DX002 (ip), vehicle: saline with Tween-80 100 % of control | dose: 200.0 mg/kg/injection, schedule: Q04DX002 (ip), vehicle: saline with Tween-80 102 % of control | dose: 400.0 mg/kg/injection, schedule: Q04DX002 (ip), vehicle: saline with Tween-80 94 % of control

CN(C)Cc1c(N=Nc2cccc3c(N=Nc4[nH]c5ccccc5c4CN(C)C)cccc23)[nH]c2ccccc12
inactive: [1] 110 % of control | [2] 108 % of control | [3] 89 % of control

FC(F)(F)c1cc(NC(=S)SCc2ccc3c(c2)OCO3)ccc1Cl
inactive: dose: 50.0 mg/kg/injection, schedule: Q01DX009 (ip), vehicle: suspension in saline 100 % of control | dose: 100.0 mg/kg/injection, schedule: Q01DX009 (ip), vehicle: suspension in saline 100 % of control | dose: 200.0 mg/kg/injection, schedule: Q01DX009 (ip), vehicle: suspension in saline 100 % of control

O=C(c1ccccc1)N1OC2C=CC1C2 (centres undefined)
inactive: dose: 12.5 mg/kg/injection, schedule: Q01DX009 (ip), vehicle: saline with Tween-80 100 % of control | [12] 89 % of control | [1] 100 % of control and 103 % of control

CCNC(=O)CCC(NS(=O)(=O)c1ccc(NC(C)=O)cc1)C(=O)O (centres undefined)
inactive: dose: 100.0 mg/kg/injection, schedule: Q04DX002 (ip), vehicle: Klucel (hydroxypropylcellulose) (HPC) 91 % of control | dose: 200.0 mg/kg/injection, schedule: Q04DX002 (ip), vehicle: Klucel (hydroxypropylcellulose) (HPC) 107 % of control | dose: 400.0 mg/kg/injection, schedule: Q04DX002 (ip), vehicle: Klucel (hydroxypropylcellulose) (HPC) 92 % of control

CC(=O)OCC(COC(C)=O)=C1N=C(c2ccccc2)OC1=O
inactive: [7] 100 % of control | [8] 100 % of control | [9] 100 % of control
